How the values were obtained:
[1] = Inhibition of chymotrypsin-like activity of human 20s immuno proteasome beta5i subunit assessed as substrate hydrolysis using Suc-Leu-Leu-Val-Tyr-AMC as flurogenic substrate at 0.004 mg/ml measured for 10 mins by fluorescence assay
[2] = molecular target: Proteasome subunit beta type-9 (PSMB9); test: Inhibition of 20S immuno proteosome beta1i subunit (unknown origin) assessed as substrate hydrolysis using Z-Leu-Leu-Glu-AMC as fluorogenic substrate at 100 uM
[3] = molecular target: Proteasome subunit beta type-10 (PSMB10); test: Inhibition of 20S immuno proteosome beta2i subunit (unknown origin) assessed as substrate hydrolysis using Boc-Leu-Arg-Arg-AMC as fluorogenic substrate at 100 uM
[4] = Inhibition of 20S constitutive proteosome beta2c subunit (unknown origin) assessed as substrate hydrolysis using Boc-Leu-Arg-Arg-AMC as fluorogenic substrate at 100 uM
[5] = molecular target: Proteasome subunit beta type-9 (PSMB9); test: Inhibition of human spleen 20S immuno proteosome beta1i subunit assessed as substrate hydrolysis using Ac-Pro-Ala-Leu-AMC as fluorogenic substrate by fluorescence based assay
[6] = Inhibition of 20S constitutive proteosome beta1c subunit (unknown origin) assessed as substrate hydrolysis using Z-Leu-Leu-Glu-AMC as fluorogenic substrate at 100 uM

| Structure (SMILES) | Ki [1] [µM] | Ki [2] [µM] | Ki [3] [µM] | Ki [4] [µM] | Ki [5] [µM] | Ki [6] [µM] |
| --- | --- | --- | --- | --- | --- | --- |
| COc1cc2ccn(C/C=C/C(=O)NCCC(C)C)c(=O)c2cc1OC |  | 0.27 | 20 | 4 |  |  |
| COc1cc2ccn(C/C=C/C(=O)NCc3ccccc3)c(=O)c2cc1OC |  | 3 |  | 9 |  | 23 |
| COc1cc2ccn(C/C=C/C(=O)Nc3ccccc3)c(=O)c2cc1OC |  | 10 | 12 | 15 |  | 17 |
| COc1cc2ccn(C/C=C/C(=O)NC3CCCCC3)c(=O)c2cc1OC |  |  | 42 |  |  |  |

Other lines, results leading:

| Ki [1] [µM] | Ki [2] [µM] | Ki [3] [µM] | Ki [4] [µM] | Ki [5] [µM] | Ki [6] [µM] | Structure (SMILES) |
| --- | --- | --- | --- | --- | --- | --- |
| 4.39 |  |  |  |  |  | CC(C)CCNC(=O)Cn1ccc2ccc(Br)cc2c1=O |
|  | 14 | 4 | 10 |  |  | COc1cc2ccn(C/C=C/C(=O)NCCc3ccccc3)c(=O)c2cc1OC |
|  |  |  |  | 0.021 |  | O=C(CCn1ccccc1=O)NCc1ccccc1 |
|  |  | 42 | 10 |  |  | CCCCNC(=O)/C=C/Cn1ccc2cc(OC)c(OC)cc2c1=O |
|  | 50 | 3 | 5 |  |  | COc1cc2ccn(C/C=C/C(=O)NCCCc3ccccc3)c(=O)c2cc1OC |

From BindingDB's records for PubMed 34838650 (University of Messina, 2022)
